Consider eleven compounds from US20220347299A1, “FLUORESCENT SYSTEMS FOR BIOLOGICAL IMAGING AND USES THEREOF” (LIGHTOX LIMITED, priority 2019, published 2022).

Data set [1] is described as follows: Peak absorption and fluorescence emission wavelengths in solvents. As to conditions: for λem(max)/nm: 100 nM, excitation at peak of absorption; for λabs(max)/nm: 10 μM. The format is physicochemical. As for the experimental part:
Peak absorption and fluorescence emission wavelengths of compounds 6, 7, 12, 13, 14, 15, 19, 23, 27, 30 and 34 were measured in a variety of solvents, and the results are shown in Table 1. Absorption measurements were recorded at a concentration of 10 μM, and emission measurements were recorded at a concentration of 100 nM. Emission spectra were recorded with excitation at the peak of absorption (S0→S1).

Data set [2] deals with HaCaT keratinocytes. Put plainly: Co-staining with organelle markers, co-localisation (PCC). The format is cell-based. As to conditions: 1 μM compound, 30 minutes, BODIPY ER-Tracker Red. As for the experimental part: To study the localisation of compounds in biological cells, co-staining of compounds of formula I with specific organelle markers (fluorescent dyes and antibodies) within biological cells was conducted. The following compounds were studied: compounds 6, 7, 12, 13, 14 and 15. HaCaT keratinocyte cell lines were used for the following experimental procedures. The cells were incubated in cell culture media (94% Dulbecco's Modified Eagle Medium (DMEM), 5% Foetal Bovine Serum (FBS) and 1% Penicillin Streptomycin solution (Pen-Strep). The cells were plated in 8-well plates, at a concentration of 25,000 cells per ml. 200 μl of cell suspension was added to each well, and the cells were incubated for 2 days before staining and imaging was carried out. In order to visualise the mitochondria, cells were probed with the mitochondrial dye MitoTracker® Deep Red. Cells to be stained were incubated with 200 μl MitoTracker® Deep Red solution (200 nM MitoTracker® and 1 μM Formula I compound in cell culture media) per well (N=3) for 30 minutes. Nile Red was used to identify lipids within the cells. 200 μl Nile Red Lipophilic dye (10 μg/ml Nile Red and 1 μM Formula I compound in cell culture media) was added to each well (N=3) and incubated for 30 minutes. For the detection of lysosomes within the cells, LysoTracker® Red DND-99 dye was used. 200 μl LysoTracker® Red DND-99 (50 nM LysoTracker® and 1 μM Formula I compound solution in cell culture media) was added to each well (N=3) and incubated for 30 minutes. For visualisation of the endoplasmic reticulum (ER), cells were stained with BODIPY® ER-Tracker® Red. 200 μl BODIPY ER-Tracker® Red (1 μM BODIPY® and 1 μM Formula I compound solution in cell culture media) was added to each well (N=3) and incubated for 30 minutes. Following incubation, the cell culture media containing dye was removed, and cells were washed twice with 200 μl phosphate buffered saline (PBS). After washing, 200 μl PBS was added into each well for imaging. For visualisation of the nuclear lamina, cells were probed with an anti-lamin A/C antibody. The cells were plated on 22×22 mm cover slips (10,000 cells/ml) and incubated for 2 days before staining. The cells were washed with PBS to remove excess media before staining. The cells were fixed with 4% paraformaldehyde (PFA) for 10 minutes at room temperature, before being washed twice in PBS for 5 minutes. Following washing, the cells were permeabilised in 0.4% Triton X-100 in PBS for 10 minutes. The cells were subsequently washed three times in PBS for 5 minutes, before being incubated in blocking buffer (1% BSA, 0.1% fish gelatine and 0.1% Triton X-100 in PBS) for 15 minutes at room temperature. The cells were incubated in primary antibody (mouse anti-lamin A/C IgG in blocking buffer) for 1 hour at room temperature. The cells were then washed twice in blocking buffer and incubated in secondary antibody (anti-mouse Alexa-594 IgG in blocking buffer) for 30 minutes at room temperature. Cells were washed twice in PBS for 10 minutes at room temperature. For cell staining with compounds of formula I, 5 μM of the compound of formula I in PBS was added to the cells for 30 minutes at room temperature. Cells were then washed five times for 5 minutes in PBS. Following washing, the cells were mounted onto non-charged microscopy slides using 6 μl Mowiol® per cover slip as mounting media. A Zeiss 880 confocal microscope was used for all the imaging work. [table] Image) Coloc2 software was used to calculate co-localization statistics between the compounds of formula I and the organelle marker images. The background was subtracted from each image and a region of interest (ROI) was used to target the analysis. The point spread function (PSF) of each image was calculated as 2.0 and Coastes' iterations was set to 100. The statistic quantified was the Pearson's Correlation Coefficient (PCC). PCC gives a number ranging from +1 to −1:1=perfect co-localisation; 0=no relationship; and, −1=perfect anti-co-localisation. […]

Data set [3] deals with black-grass cells. Put plainly: Cytotoxicity assay (FDA/PI) in black-grass cell suspension culture. Type of data set: cell-based. As for the experimental part: 5 mL of black-grass cell suspension culture was treated with 0.1, 1, 5, and 10 μM of compound numbers 7, 14, 12 and 15 for 1 hour at room temperature. Cells treated with 0.1% DMSO were used as a control. Cells were irradiated (˜365 nm) for 5 minutes before being incubated at 25° C., 150 rpm for 24 hours. In addition, the cytotoxicity of the compounds without irradiation was also assessed. Cell viability of five biological replicates for each concentration were determined via fluorescence assay (FDA/PI) assay. Percentage of cell viability was calculated using following formulation:
% viability={live cells (FDA)/(live cells+dead cells)}×100
The statistical analysis of percentage of cell viability was performed through one-way analysis of variance (ANOVA) followed by Tukey HSD posthoc test using SPSS 23 (IBM, Chicago, Ill., USA).

Data set [4] is described as follows: Photophysical comparison of para- and ortho-substituted compounds in chloroform. The settings on record: for excitation by 405 nm violet excitation laser light source (absorption at this wavelength): Chloroform. Type of data set: physicochemical. As for the experimental part:
To compare the photophysical behaviour of para-substituted compounds of the invention with ortho-substituted compounds, compound 73 and reference compound 77 were synthesised in accordance with Example 1:
Solutions of compounds 73 and 77 were prepared at concentrations of 10 μM and 100 nM in chloroform. The absorption spectra of each compound (10 μM) was recorded using a CARY100 UV-Visible spectrometer, from 200-800 nm, and is shown in FIG. 3a after solvent background subtraction. […] Also shown in FIG. 3a is the approximate bandwidth of a 405 nm violet excitation laser light source that is commonplace on fluorescence microscopes used for cellular imaging studies.
To assess this effect and to compare the fluorescence emission properties of 73 and 77, solutions of both compounds in chloroform (100 nM) were excited at both 360 nm and 405 nm. At 360 nm excitation, 73 and 77 were excited with high efficiency since this wavelength is close to the absorption maxima of both compounds.
Both compounds were also excited at 405 nm to compare their respective suitabilities towards imaging using a typical fluorescence microscope.

Setting [5] is: 0.1, 1, 5, 10 μM, with and without ~365 nm irradiation 5 minutes, 24 hours.

SMILES strings stand for the structures.

Regarding `COC(=O)/C=C/c1ccc(C#Cc2ccc(N3CCN(CCC[P+](c4ccccc4)(c4ccccc4)c4ccccc4)CC3)cc2)cc1.[Br-]` [Compound 14, (3-{4-[4-(2-{4-[(1E)-3-methoxy-3-oxoprop-1-en-1-yl]phenyl}ethynyl)phenyl]piperazin-1-yl}propyl)triphenylphosphonium bromide], in data set [1] (DCM), the “λem(max)/nm” value amounted to 531 nm and the “λabs(max)/nm” value is 361 nm. Also, in data set [1] (Toluene), the “λem(max)/nm” value is given as 506 nm and the “λabs(max)/nm” value came out at 367 nm. Further, the “average PCC Value with BODIPY ER-Tracker” value in data set [2] is reported as 0.68. In addition, the black-grass cell viability entry in data set [3] (1 μM, also in non-irradiation treatment) is reported as “significantly reduced”. Moreover, in data set [3] (black-grass cells, ~365 nm, 5 minutes), the “dependence of cytotoxic effect on irradiation” value was “independent of irradiation”.

Take `COC(=O)/C=C/c1ccc(C#Cc2ccc(N3CCNCC3)cc2)cc1` [Compound 7, methyl (2E)-3-(4-{2-[4-(piperazin-1-yl)phenyl]ethynyl}phenyl)prop-2-enoate]: the “λem(max)/nm” value in data set [1] (DCM) is given as 563 nm; in data set [1] (Toluene), 504 nm. The “λabs(max)/nm” value in data set [1] (DCM) was determined as 362 nm; in data set [1] (Toluene), 361 nm. Further, the “average PCC Value with BODIPY ER-Tracker” value in data set [2] came out at 0.32. Further, in data set [3] (setting [5]), the black-grass cell viability entry is on record as “did not reduce black-grass cell viability regardless of concentration or irradiation treatment”.

As to `COC(=O)/C=C/c1ccc(C#Cc2ccccc2N2CCN(C)CC2)cn1` [Compound 77, methyl (2E)-3-(5-{2-[2-(4-methylpiperazin-1-yl)phenyl]ethynyl}pyridin-2-yl)prop-2-enoate, reference compound], in data set [4] (10 μM), the “excitation by 405 nm violet excitation laser light source (absorption at this wavelength)” value was “absorbed only very weakly”. Also, in data set [4] (chloroform, 100 nM), the “fluorescence emission at 405 nm excitation” value is on record as “only very weak fluorescence emission”. In data set [4] (chloroform, 10 μM, 200-800 nm), the “absorption spectrum, ortho-position 77 relative to para-position 73” value is “substantial hypsochromic shift and reduction in extinction coefficient”.

Consider `COC(=O)/C=C/c1ccc(C#Cc2ccc(N3CCN(C(C)=O)CC3)cc2)cc1` [Compound 13, methyl (2E)-3-(4-{2-[4-(4-acetylpiperazin-1-yl)phenyl]ethynyl}phenyl) prop-2-enoate], for which the “λem(max)/nm” value in data set [1] (DCM) was 547 nm; in data set [1] (Toluene) it was 464 nm. Besides, the “λabs(max)/nm” value is given as 361 nm in data set [1] (DCM) and 358 nm in data set [1] (Toluene). The “average PCC Value with BODIPY ER-Tracker” value in data set [2] is on record as −0.18.

In the case of `NCCN1C(=O)/C(=C/c2ccc(C#Cc3ccc(N4CCC4)cc3)cc2)N=C1c1ccccc1` [Compound 34, (4Z)-1-(2-aminoethyl)-4-[(4-{2-[4-(azetidin-1-yl)phenyl]ethynyl}phenyl)methylidene]-2-phenyl-4,5-dihydro-1H-imidazol-5-one], in data set [1] (Chloroform), the “λem(max)/nm” value is 628 nm and the “λabs(max)/nm” value is 432 nm.

In the case of `COC(=O)/C=C/c1ccc(C#Cc2ccc(N(C)CCNS(=O)(=O)c3ccc(C)cc3)cc2)cc1` [Compound 15, methyl (2E)-3-{4-[2-(4-{methyl[2-(4-methylbenzenesulfonamido)ethyl]amino}phenyl)ethynyl]phenyl}prop-2-enoate], in data set [1] (DCM), the “λem(max)/nm” value came to 545 nm and the “λabs(max)/nm” value is 377 nm. Also, in data set [1] (Toluene), the “λem(max)/nm” value came to 473 nm and the “λabs(max)/nm” value was 381 nm. Moreover, the “average PCC Value with BODIPY ER-Tracker” value in data set [2] is recorded as 0.30. In addition, the black-grass cell viability entry in data set [3] (setting [5]) is recorded as “did not reduce black-grass cell viability regardless of concentration or irradiation treatment”.

For `COC(=O)/C=C/c1ccc(C#Cc2ccc(N3CCC3)cc2)cc1` [Compound 30, methyl (2E)-3-(4-{2-[4-(azetidin-1-yl)phenyl]ethynyl}phenyl)prop-2-enoate], in data set [1] (Chloroform), the “λem(max)/nm” value was 535 nm and the “λabs(max)/nm” value came to 374 nm.

On to `CC(C)(C)OC(=O)/C=C/c1ccc(C#Cc2ccc(N3CCNCC3)cc2)s1` [Compound 27, tert-butyl (2E)-3-(5-{2-[4-(piperazin-1-yl)phenyl]ethynyl}thiophen-2-yl) prop-2-enoate], for which, in data set [1] (DCM), the “λem(max)/nm” value is recorded as 524 nm and the “λabs(max)/nm” value is given as 371 nm. Also, in data set [1] (Toluene), the “λem(max)/nm” value came out at 493 nm and the “λabs(max)/nm” value was 380 nm.

For the compound `O=C1/C(=C/c2ccc(C#Cc3ccc(N4CCNCC4)cc3)cc2)N=C(c2ccccc2)N1CCN1CCOCC1` [Compound 23, (4Z)-1-[2-(morpholin-4-yl)ethyl]-2-phenyl-4-[(4-{2-[4-(piperazin-1-yl)phenyl]ethynyl}phenyl)methylidene]-4,5-dihydro-1H-imidazol-5-one], in data set [1] (Chloroform), the “λem(max)/nm” value was determined as 616 nm and the “λabs(max)/nm” value is recorded as 424 nm.

Turning to `COCCN1C(=O)/C(=C/c2ccc(C#Cc3ccc(N4CCNCC4)cc3)cc2)N=C1C` [Compound 19, (4Z)-1-(2-methoxyethyl)-2-methyl-4-[(4-{2-[4-(piperazin-1-yl)phenyl]ethynyl}phenyl)methylidene]-4,5-dihydro-1H-imidazol-5-one], the “λem(max)/nm” value in data set [1] (Chloroform) is recorded as 584 nm; in data set [1] (Toluene), 515 nm. In addition, the “λabs(max)/nm” value amounted to 403 nm in data set [1] (Chloroform), 395 nm in data set [1] (MeOH) and 403 nm in data set [1] (Toluene).

For `COC(=O)/C=C/c1ccc(C#Cc2ccc(N3CCN(C)CC3)cc2)cn1` [Compound 73, methyl (2E)-3-(5-{2-[4-(4-methylpiperazin-1-yl)phenyl]ethynyl}pyridin-2-yl)prop-2-enoate], the “excitation by 405 nm violet excitation laser light source (absorption at this wavelength)” value in data set [4] (10 μM) is “capable of efficient excitation”. In data set [4] (chloroform, 100 nM), the “fluorescence emission at 360 nm excitation, compared to the other compound” value was “substantially stronger fluorescence emission” and the “fluorescence emission at 405 nm excitation” value is given as “of a similar intensity to excitation at 360 nm”. Also, the “shift of fluorescence emission compared to compound 77” value in data set [4] (chloroform, 100 nM, 360 nm excitation) is given as “significant bathochromic shift”.
